Assay results reported in the supplement of paper PMC10307832.

Compound: CC1=C(C=CC(=C1)[N+](=O)[O-])NS(=O)(=O)C2=C(C=CC(=C2)Cl)Cl [FH535]
Experiment: relative viability (nuclei count vs DMSO), 5 days (fraction); higher = more cells survive
Method in brief: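 Only plates meeting two conditions passed: control CV below 25% and at least one doubling. Lung cancer cell lines, kept overnight at 37 °C in 1536-well plates, were pinned with five library-drug doses (not always all listed) √10 apart on vehicle-anchored plates and grown 5 days without medium change. A one-step fix, permeabilisation and Hoechst stain preceded 4× imaging and MetaXpress nuclear counting. Viability equals treated-well nuclei divided by vehicle-well nuclei, as the median over plates.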

Row | Cell Line | relative viability (0.04 µM) | relative viability (0.1265 µM) | relative viability (0.4 µM) | relative viability (1.265 µM)
1 | 201T | 0.976 | 1 | 0.884 | 0.862
2 | A549 | 0.878 | 0.887 | 0.928 | 0.789
3 | A-427 | 0.908 | 1.05 | 0.926 | 0.819
4 | ABC-1 | 1 | 0.858 | 0.812 | 0.774
5 | BEN | 0.92 | 0.946 | 0.862 | 0.653
6 | CAL-12T | 0.989 | 0.977 | 0.819 | 0.591
7 | COR-L23 | 0.98 | 1.03 | 0.842 | 0.573
8 | COR-L 105 | 0.882 | 1.08 | 0.76 | 0.82
9 | ChaGo-K-1 | 0.91 | 1.06 | 0.887 | 0.775
10 | EKVX | 0.987 | 0.951 | 0.905 | 0.773
11 | EMC-BAC-2 | 0.808 | 0.953 | 0.913 | 0.839
12 | EPLC-272H | 0.838 | 0.934 | 0.796 | 0.774
13 | H3255 | 0.953 | 0.945 | 0.955 | 0.745
14 | HARA | 0.855 | 0.876 | 0.779 | 0.711
15 | HCC-15 | 0.928 | 0.998 | 0.841 | 0.786
16 | HCC-44 | 0.994 | 0.943 | 0.836 | 0.747
17 | HCC-78 | 0.927 | 1 | 0.951 | 0.865
18 | HCC-366 | 1 | 1.05 | 0.973 | 0.992
19 | HCC-827 | 0.956 | 1.04 | 0.936 | 0.767
20 | HOP-62 | 0.89 | 0.919 | 0.93 | 0.853
21 | LC-2-ad | 0.894 | 0.936 | 0.857 | 0.71
22 | LCLC-97TM1 | 0.809 | 0.913 | 0.844 | 0.913
23 | LCLC-103H | 0.919 | 1.03 | 0.901 | 0.753
24 | LK-2 | 0.919 | 0.983 | 0.996 | 1.17
25 | LOU-NH91 | 0.936 | 1.07 | 0.742 | 0.472

Row | Cell Line | relative viability (0.04 µM) | relative viability (0.1265 µM) | relative viability (0.4 µM) | relative viability (1.265 µM)
26 | LU99A | 0.812 | 0.973 | 0.854 | 0.811
27 | LXF-289 | 0.99 | 0.989 | 0.913 | 0.851
28 | NCI-H23 | 0.635 | 1.01 | 0.967 | 0.687
29 | NCI-H322M | 0.92 | 0.93 | 0.937 | 0.761
30 | NCI-H358 | 0.853 | 1.11 | 0.814 | 0.674
31 | NCI-H441 | 0.929 | 1.14 | 1.14 | 0.84
32 | NCI-H460 | 0.997 | 1.03 | 0.935 | 0.699
33 | NCI-H520 | 0.963 | 1.04 | 0.934 | 0.915
34 | NCI-H522 | 0.875 | 0.894 | 0.856 | 0.825
35 | NCI-H596 | 0.926 | 0.865 | 0.975 | 0.908
36 | NCI-H647 | 0.872 | 1.05 | 0.906 | 0.801
37 | NCI-H650 | 0.82 | 0.913 | 0.846 | 0.687
38 | NCI-H661 | 1 | 1.01 | 0.955 | 0.637
39 | NCI-H727 | 0.699 | 0.814 | 0.706 | 0.797
40 | NCI-H838 | 0.962 | 0.96 | 0.851 | 0.777
41 | NCI-H1355 | 0.942 | 0.981 | 0.917 | 0.681
42 | NCI-H1395 | 0.683 | 0.929 | 0.909 | 0.62
43 | NCI-H1437 | 0.976 | 0.934 | 0.731 | 0.422
44 | NCI-H1650 | 0.893 | 0.966 | 0.881 | 0.717
45 | NCI-H1651 | 0.92 | 0.988 | 0.964 | 0.727
46 | NCI-H1666 | 0.986 | 0.976 | 0.954 | 0.93
47 | NCI-H1703 | 0.958 | 0.848 | 0.929 | 0.768
48 | NCI-H1734 | 0.724 | 1.07 | 0.945 | 0.821
49 | NCI-H1755 | 1 | 1.05 | 0.944 | 0.953
50 | NCI-H1792 | 0.874 | 0.958 | 0.789 | 0.62

Row | Cell Line | relative viability (0.04 µM) | relative viability (0.1265 µM) | relative viability (0.4 µM) | relative viability (1.265 µM)
51 | NCI-H1793 | 0.825 | 0.747 | 0.762 | 0.642
52 | NCI-H1915 | 0.863 | 1.03 | 0.906 | 0.792
53 | NCI-H1944 | 0.862 | 0.993 | 0.928 | 0.818
54 | NCI-H1975 | 0.919 | 0.965 | 0.87 | 0.82
55 | NCI-H1993 | 0.902 | 0.967 | 0.838 | 0.635
56 | NCI-H2009 | 0.964 | 1.01 | 0.92 | 0.701
57 | NCI-H2023 | 0.901 | 1.06 | 0.988 | 0.841
58 | NCI-H2085 | 0.96 | 0.967 | 0.97 | 0.852
59 | NCI-H2087 | 1.05 | 1.01 | 0.845 | 0.683
60 | NCI-H2126 | 0.961 | 1.02 | 0.888 | 0.67
61 | NCI-H2170 | 0.904 | 1.02 | 0.963 | 0.858
62 | NCI-H2228 | 0.884 | 1.01 | 0.985 | 0.896
63 | NCI-H2342 | 0.96 | 0.964 | 1.01 | 0.76
64 | NCI-H2347 | 0.986 | 0.974 | 1.02 | 0.842
65 | NCI-H2405 | 0.922 | 0.967 | 0.882 | 0.713
66 | NCI-H3122 | 0.933 | 0.995 | 0.978 | 0.885
67 | PC-3 [JPC-3] | 0.971 | 1.04 | 0.906 | 0.621
68 | PC-14 | 1.01 | 1.06 | 0.989 | 0.955
69 | RERF-LC-KJ | 0.947 | 0.998 | 0.962 | 0.808
70 | SK-LU-1 | 1.03 | 1.02 | 0.945 | 0.758
71 | SK-MES-1 | 0.986 | 1.01 | 0.963 | 0.776
72 | SW 1573 | 0.908 | 1.01 | 0.899 | 0.836
73 | UMC-11 | 0.94 | 0.877 | 0.9 | 0.911
